Activity calls are given as the source filed them. Cut-off read from the data, not from the text of the source, for most assays here: actives have a measured EC50 and inactives only a lower limit.
Legend:
[1] = luciferase reporter signal suppression in cells – H4 neuroglioma cells, luminescence, dose response (AID 1990); format: functional, cell-based
[2] = Luminescence Cell-Based Dose Response HTS to Identify Inhibitors of 5'UTR Stem-Loop Driven Prion Protein mRNA Translation in H4 Neuroglioblastoma Cells. [Related pubchem assays: 1827 (Project Summary), 1813 (Primary HTS)]; format: functional
[3] = alpha-synuclein stem-loop luciferase translation blockers – H4 neuroglioma cells, luminescence, confirmation (AID 1988); format: functional, cell-based
[4] = target: Luciferin 4-monooxygenase (Photinus pyralis, UniProt P08659); assay: inhibition of purified Photinus pyralis luciferase – biochemical, luminescence, dose response (AID 1891)
[5] = Luminescence Cell-Based Dose Confirmation HTS to Identify Inhibitors of Platelet Dense Granule Release. [Related pubchem assays: 1663 (Primary HTS), 1678 (Summary of Project)]; format: functional
[6] = target: T1, RNA-binding protein pos-1 (Caenorhabditis elegans, UniProt G5EF15); assay: disruptors of C. elegans POS-1 RNA interaction – biochemical, fluorescence polarization, dose response (AID 1964);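 note: purified POS-1 fused to maltose binding protein made in E. coli; potency of compounds blocking POS-1 binding to fluorescent RNA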
T1 sequence (G5EF15 whole entry): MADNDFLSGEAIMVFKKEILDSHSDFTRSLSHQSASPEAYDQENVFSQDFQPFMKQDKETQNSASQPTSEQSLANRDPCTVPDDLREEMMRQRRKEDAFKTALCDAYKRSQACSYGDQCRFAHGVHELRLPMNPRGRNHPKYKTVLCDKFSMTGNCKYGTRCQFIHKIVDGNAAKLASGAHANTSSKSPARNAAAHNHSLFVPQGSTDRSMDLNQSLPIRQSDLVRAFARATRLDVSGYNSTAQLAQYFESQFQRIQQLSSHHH

[7] = target: T2, Zinc finger protein mex-5 (Caenorhabditis elegans, UniProt Q9XUB2); assay: potency of MEX-5 RNA-binding blockers – biochemical, C. elegans, fluorescence polarization, dose response (AID 1960)
T2 sequence (Q9XUB2 whole entry): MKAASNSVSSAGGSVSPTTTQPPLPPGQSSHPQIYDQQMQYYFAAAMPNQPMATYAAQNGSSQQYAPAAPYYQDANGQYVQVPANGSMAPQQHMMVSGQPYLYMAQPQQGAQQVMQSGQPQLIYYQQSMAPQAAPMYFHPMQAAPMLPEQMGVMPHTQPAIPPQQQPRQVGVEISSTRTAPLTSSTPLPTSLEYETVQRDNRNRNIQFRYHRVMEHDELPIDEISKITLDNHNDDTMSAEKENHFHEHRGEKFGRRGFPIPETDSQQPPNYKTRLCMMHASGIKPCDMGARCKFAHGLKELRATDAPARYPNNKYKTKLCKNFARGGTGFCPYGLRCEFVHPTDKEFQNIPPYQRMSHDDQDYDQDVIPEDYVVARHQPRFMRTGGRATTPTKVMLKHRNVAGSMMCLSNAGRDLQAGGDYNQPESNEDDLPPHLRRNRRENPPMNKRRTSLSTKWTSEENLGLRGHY

[8] = Trypanosoma cruzi growth suppression in host cells – NIH3T3 host cells, beta-gal luminescence, confirmation (AID 2044); format: functional, cell-based;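 note: intracellular parasites grown in NIH/3T3 mouse fibroblasts as host cells; luminescent beta-galactosidase reporter signal from transgenic T. cruzi replicating inside host cells; inhibitors lower the luminescence signal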
[9] = NIH3T3 cell viability loss – ATP luminescence, mouse fibroblasts, counter-screen, dose response (AID 2010); format: functional, cell-based;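 note: cells exposed to compound for about 90 hours before reading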
[10] = target: T3, Replicative DNA helicase DnaB (Mycobacterium tuberculosis, UniProt P9WMR3); assay: DnaB intein splicing inhibitors, dose response, biochemical, cell-free fluorescence (AID 449749); format: functional
T3 sequence (P9WMR3 whole entry): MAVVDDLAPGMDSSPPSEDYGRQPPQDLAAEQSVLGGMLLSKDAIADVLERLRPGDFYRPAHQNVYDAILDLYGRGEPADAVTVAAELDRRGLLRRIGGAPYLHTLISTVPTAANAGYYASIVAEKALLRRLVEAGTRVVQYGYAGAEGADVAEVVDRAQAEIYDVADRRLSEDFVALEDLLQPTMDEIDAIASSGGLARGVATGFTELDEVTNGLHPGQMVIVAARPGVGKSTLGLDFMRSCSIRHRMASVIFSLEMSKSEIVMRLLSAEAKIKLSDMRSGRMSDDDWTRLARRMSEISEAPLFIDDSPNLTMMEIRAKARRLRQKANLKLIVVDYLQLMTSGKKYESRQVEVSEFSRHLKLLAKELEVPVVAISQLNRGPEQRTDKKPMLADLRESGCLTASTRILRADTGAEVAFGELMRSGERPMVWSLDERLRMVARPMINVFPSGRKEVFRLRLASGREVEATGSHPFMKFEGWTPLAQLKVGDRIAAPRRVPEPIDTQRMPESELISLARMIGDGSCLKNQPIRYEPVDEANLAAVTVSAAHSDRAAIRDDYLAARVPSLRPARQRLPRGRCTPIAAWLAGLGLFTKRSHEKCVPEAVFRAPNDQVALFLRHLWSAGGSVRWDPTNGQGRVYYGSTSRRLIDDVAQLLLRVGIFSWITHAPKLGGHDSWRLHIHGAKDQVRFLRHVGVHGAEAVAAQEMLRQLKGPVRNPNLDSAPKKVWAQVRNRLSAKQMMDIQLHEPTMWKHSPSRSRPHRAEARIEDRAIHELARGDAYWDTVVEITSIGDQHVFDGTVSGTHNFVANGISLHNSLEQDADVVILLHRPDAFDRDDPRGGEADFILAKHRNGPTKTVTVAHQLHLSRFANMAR

[11] = target: T4, Protein RecA (Mycobacterium tuberculosis, UniProt P9WHJ3); assay: Fluorescence Cell-Free Homogeneous Dose Retest to Identify Inhibitors of RecA-Intein Splicing Activity. [Related pubchem assays (depositor defined):AID2097, AID2223, AID489010, AID492950]; format: functional
T4 sequence (P9WHJ3 whole entry): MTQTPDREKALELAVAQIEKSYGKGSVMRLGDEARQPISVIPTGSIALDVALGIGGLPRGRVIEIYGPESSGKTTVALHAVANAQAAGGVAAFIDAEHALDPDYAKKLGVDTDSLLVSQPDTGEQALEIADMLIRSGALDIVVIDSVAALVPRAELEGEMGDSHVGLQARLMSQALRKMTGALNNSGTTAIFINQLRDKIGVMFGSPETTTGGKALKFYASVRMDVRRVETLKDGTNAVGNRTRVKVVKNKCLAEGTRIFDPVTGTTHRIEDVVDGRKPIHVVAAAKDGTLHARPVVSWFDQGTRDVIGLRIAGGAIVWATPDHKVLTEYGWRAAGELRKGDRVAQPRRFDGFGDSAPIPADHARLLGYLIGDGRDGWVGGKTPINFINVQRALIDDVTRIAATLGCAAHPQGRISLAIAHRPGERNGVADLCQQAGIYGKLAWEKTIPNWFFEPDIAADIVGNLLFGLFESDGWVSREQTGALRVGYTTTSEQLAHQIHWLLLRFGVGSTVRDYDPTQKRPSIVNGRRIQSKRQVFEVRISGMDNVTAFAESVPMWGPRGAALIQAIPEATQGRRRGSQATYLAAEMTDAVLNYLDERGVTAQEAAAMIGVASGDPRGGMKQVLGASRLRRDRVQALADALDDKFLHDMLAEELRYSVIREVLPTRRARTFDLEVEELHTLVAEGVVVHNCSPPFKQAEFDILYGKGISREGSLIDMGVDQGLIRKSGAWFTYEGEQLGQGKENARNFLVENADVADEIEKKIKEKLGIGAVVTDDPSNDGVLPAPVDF

Sequence of Luciferin 4-monooxygenase (P08659 whole entry): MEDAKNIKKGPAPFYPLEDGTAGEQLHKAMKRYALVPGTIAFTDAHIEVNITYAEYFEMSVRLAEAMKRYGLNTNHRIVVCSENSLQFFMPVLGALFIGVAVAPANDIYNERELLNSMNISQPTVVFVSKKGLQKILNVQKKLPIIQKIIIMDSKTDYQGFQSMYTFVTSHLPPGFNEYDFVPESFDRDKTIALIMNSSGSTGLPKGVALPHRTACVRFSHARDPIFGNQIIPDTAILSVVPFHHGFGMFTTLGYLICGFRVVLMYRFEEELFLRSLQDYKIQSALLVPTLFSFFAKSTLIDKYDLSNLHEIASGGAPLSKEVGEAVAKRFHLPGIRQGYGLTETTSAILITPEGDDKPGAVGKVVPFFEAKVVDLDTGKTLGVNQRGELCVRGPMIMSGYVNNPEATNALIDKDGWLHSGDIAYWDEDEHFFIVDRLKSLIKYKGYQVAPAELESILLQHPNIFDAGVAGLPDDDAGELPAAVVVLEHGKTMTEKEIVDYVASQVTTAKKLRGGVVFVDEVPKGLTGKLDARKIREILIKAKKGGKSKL

SMILES	EC50 [4]	EC50 [5]	EC50 [6]	EC50 [7]	further results
O=C(Cn1cc2c(n1)CCCC2)NCc1cccc(Cl)c1	–	–	–	–	EC50 [1]: > 120 µM (not active); EC50 [2]: > 120 µM (not active); EC50 [3]: > 120 µM (not active)
COc1ccccc1C(=O)NCCC(=O)Nc1ncccc1O	> 112 µM (not active)	> 112 µM (not active)	–	–	–
CCc1ccc(/C=C2\Oc3c(ccc(O)c3CN3CCN(CCO)CC3)C2=O)cc1	–	–	37.1 µM (active)	73.3 µM (active)	–
Cn1cc(S(=O)(=O)N2CCOCC2)cc1C(=O)Nc1ccc(Cl)cc1	> 112 µM (not active)	> 112 µM (not active)	–	–	–
COc1ccc(/C=C/CN2CCCC(CO)(Cc3cccc(Cl)c3)C2)cc1 (centres undefined)	> 112 µM (not active)	> 112 µM (not active)	–	–	–
COc1ccccc1N1CCN(C(=O)c2cc(-c3ccccc3O)on2)CC1	> 112 µM (not active)	> 112 µM (not active)	–	–	–
CCCCCCN1C(=O)/C(=C/Nc2ccccc2N2CCOCC2)C(=O)NC1=S	–	–	> 300 µM (not active)	> 300 µM (inconclusive)	–
CCOC(=O)c1ccc2nc(NC(=O)c3cccs3)sc2c1	0.729 µM (active)	10.7 µM (active)	–	–	–
CCOC(=O)C1=C(C)OC(N)=C(C#N)C1C1CCCCC1 (centres undefined)	> 112 µM (not active)	> 112 µM (not active)	–	–	–
CC1CCCCN1Cc1nc2c(c(=O)n(C)c(=O)n2C)n1CCc1ccccc1 (centres undefined)	> 112 µM (not active)	> 112 µM (not active)	–	–	–
COc1ccc(CCNCc2ccc(OCC(=O)N3CCCCC3)c(OC)c2)cc1OC	> 112 µM (not active)	16.3 µM (active)	–	–	EC50 [8]: 0.133 µM (active); EC50 [9]: > 60 µM (inconclusive)
O=C(O)CCc1ccc(-c2ccccc2)n1-c1cccc(C(=O)O)c1	–	–	> 300 µM (not active)	> 300 µM (not active)	–
O=C(O)c1ccc(COc2cccc(CO)c2)cc1	44.4 µM (active)	4.38 µM (active)	–	–	–
CCN1C(=C(C#N)C#N)C=Cc2ccccc21	–	–	> 300 µM (inconclusive)	> 300 µM (not active)	–
Cc1ccc(C)c(N(CC(=O)Nc2ccccc2C(=O)NCc2ccco2)S(=O)(=O)c2ccccc2)c1	–	–	–	–	EC50 [1]: 15.6 µM (active); EC50 [2]: > 120 µM (not active); EC50 [3]: > 120 µM (not active)
CC/C(NCCCN(C)C)=C1/C(=O)NC(=O)N(c2ccc(OC)cc2)C1=O	–	–	> 300 µM (not active)	> 300 µM (not active)	–
COCCCNc1nc(N)c([N+](=O)[O-])c(NCc2ccccc2)n1	–	–	–	–	EC50 [1]: 19.4 µM (active); EC50 [2]: > 120 µM (not active); EC50 [3]: 14.2 µM (active)
Cc1ccc(N(C)S(=O)(=O)c2c(C)noc2/C=C/N(C)C)cc1	–	–	> 300 µM (not active)	> 300 µM (not active)	–
FC(F)(F)c1cc(C(F)(F)F)n2nc(-c3sccc3-n3cccc3)cc2n1	–	–	> 300 µM (not active)	> 300 µM (not active)	–
Cc1cc(NC(=O)/C=C/c2cccc(Cl)c2)n(-c2nc3ccccc3[nH]2)n1	> 112 µM (not active)	49.7 µM (active)	–	–	–
Cc1cc(N)n2nc(-c3ccc(C(C)(C)C)cc3)cc2n1	0.401 µM (active)	2.35 µM (active)	–	–	–
Cc1cc[n+](C2=C([N-]S(=O)(=O)c3cccs3)C(=O)c3ccccc3C2=O)cc1C	–	–	> 300 µM (not active)	> 300 µM (not active)	EC50 [8]: > 60 µM (not active); EC50 [9]: > 30 µM (not active); AC50 [10]: 3.69 µM (active); EC50 [11]: 3.8 µM (active)
O=C(NCc1ccco1)c1ccc(-c2ccccc2Cl)o1	> 112 µM (not active)	> 112 µM (not active)	–	–	–
CCc1nc(SCC(=O)Nc2cccc(C(F)(F)F)c2)c2c(=O)n(C)c(=O)n(C)c2n1	–	–	–	–	EC50 [1]: 19.1 µM (active); EC50 [2]: 16.4 µM (active); EC50 [3]: 15.9 µM (active)
Nc1nc(NCCc2ccccc2)nc(NCCO)c1[N+](=O)[O-]	–	–	–	–	EC50 [1]: 19.1 µM (active); EC50 [2]: > 120 µM (not active); EC50 [3]: 39.1 µM (active)
C/C(=N/N=C(\C)c1ccccc1O)c1ccccc1O	–	–	> 300 µM (not active)	> 300 µM (inconclusive)	–
O=C(Cn1cncn1)N/N=C/c1c2ccccc2cc2ccccc12	–	–	> 300 µM (not active)	> 300 µM (not active)	–
Cc1nc(O)nc(O)c1/C=N/NC(=O)CCNC(=O)OC(C)(C)C	> 112 µM (not active)	> 112 µM (not active)	–	–	–
CCOc1cccc(-c2c(C(=O)N/N=C/c3ccc(C)s3)nnn2-c2nonc2N)c1	> 112 µM (not active)	> 112 µM (not active)	–	–	–
